Entries after “also recorded” stand apart in the source; their conditions may differ.
How the values were obtained:
Ts65Dn mice [1] = settings: restoration of norepinephrine level; cited from earlier work
Ts65Dn mice [2] = settings: restoration of norepinephrine level; cited from earlier work; remark: listed apart in the source
C57Bl/6J mice = assay: Contextual fear conditioning memory retrieval (FIG. 10A, B); assay type: in vivo; settings: betaxolol 1 mg/kg, atenolol 3 mg/kg s.c.
Method: In all experiments xamoterol 3 mg/kg, atenolol 3 mg/kg, and betaxolol 1 mg/kg were injected subcutaneously. […] Results are shown as mean+SEM (ns=not significant, *=p<0.05, and **=p<0.01).

male Ts65Dn mice [3] = assay: Contextual fear conditioning; assay type: in vivo; settings: betaxolol 1 mg/kg s.c. plus xamoterol 3 mg/kg s.c.
Method: Contextual and Cued fear conditioning was conducted for evaluation of fear-dependent learning and retrieval in the study. The test was performed using chambers from Coulbourn Instruments (Whitehall, Pa.). On the first day, the animals were placed in a chamber (Context A) for 3 min for baseline recording, followed by 5 tone-shock pairings. The shock (0.5 mA, 2 sec) was delivered following the tone (70 dB, 2 kHz, 20 sec) in each conditional/unconditional stimulus pairing. On the second day a novel chamber (Context B; new room, new olfactory environment, texture of floor, blue plastic inserts for walls, extra source of blue light, and visual cues) was used for cued testing. Three tones without shocks were presented to animals during a 3 min testing period following a 3 min pre-tone period. On the last day of the experiment, the mice were placed in Context A for 5 min without any conditional and unconditional stimulus {modified from the method described by (Saxe et al., 2006)}. Freezing was defined as the complete lack of motion for a minimum of 0.75 second as measured by FreezeFrame software (Actimetrics, Evanston, Ill.). The percent of freezing in each period was reported. For the startle response control test, an acoustic startle reflex apparatus (Med Associates Inc., St. Albans, Vt.) was used. The subjects were acclimated to the animal holder in the startle box for a total of 15 min over 3 consecutive-days prior to the experiment. The animals were exposed to 25 different trials with 10-20 second randomly variable inter-trial intervals. Five different intensities of startle pulses, 0, 90, 100, 110, and 120 dB, were randomly used, and each animal was randomly exposed 5 times to each intensity of the startle pulse. The duration of each startle pulse was 40 ms and the peak amplitude of the startle response in each trial was recorded for analysis. The holding cage on the apparatus was cleaned with 10% alcohol between each animal. […] In this part of the study, activity chamber and three cognitive tests, including T-maze spontaneous alternation, contextual fear conditioning (CFC), and novel object recognition were performed. In T-maze spontaneous alternation and contextual fear conditioning, both Ts65Dn and 2N male mice were divided into three treatment groups including normal saline (Vehicle), xamoterol, and betaxolol plus xamoterol groups. In the novel object recognition test, both Ts65Dn and 2N male mice were divided into two treatment groups, normal saline and xamoterol. The T-maze was performed exactly as previously described. […] On the first day (training day), animals were placed in the fear conditioning chamber, and after a 3-minute pre-shock period, they were exposed to 5 shocks (2 s, 0.5 mA,) with inter-trial intervals of 80 seconds and no tone. On the second day, the animals first received xamoterol, xamoterol plus betaxolol, or saline injection, and one hour later, they were placed in the same chamber for 5 minutes. Similar to the previous description of fear conditioning, freezing was defined as the complete lack of motion for a minimum of o.75 second. The Novel Object Recognition task is conducted in an open field arena (40 cm×40 cm). Mice were habituated in the testing room for 1 hour followed by 5 minutes habituation inside the arena without any objects. On 4th day animals were introduced 3 times to arena with 3 identical subjects for 10 minutes with 3 minutes inter trial intervals. On 5th day (24 hours after trainings) one of the objects replaced by a novel one and the time sniffing of each object were used for analysis. For testing the role of β1 adrenergic system, xamoterol and betaxolol (Tocris Bioscience, Ellisville, Mo.) were injected subcutaneously using 10 ml/kg normal saline as vehicle. Xamoterol, (3 mg/kg) was given one hour before testing and betaxolol (1 mg/kg) was given 30 minutes before testing.

male Ts65Dn mice [4] = assay: T-maze spontaneous alternation; assay type: in vivo; settings: betaxolol 1 mg/kg s.c. plus xamoterol 3 mg/kg s.c.
From the text: The T-maze had 3 equal arms (30 cm length, 10 cm width, and 20 cm height). The start arm and 2 goal arms had guillotine gates. This test was based on the rodents' preference to experience a new arm of the T-maze instead of a familiar one ([…], 1998). In each trial, the mouse was placed in the start arm. The gate was then opened and the mouse was able to freely explore the arms. As soon as the mouse entered one goal arm, the sliding gate of the other goal arm closed. The mouse eventually returned to the start arm and the next trial was started. In the next trial, the mouse may recognize the previously chosen goal arm and choose to explore a new arm rather than revisit the previously visited arm. This trial was repeated 11 times per day for 3 consecutive days, for a total of 33 trials. The maze was cleaned with 50% ethanol between trials to eliminate odor. Percent of alternation (number of turns in each goal arm) was used for analysis. This protocol has been described before by Belichenko et al. (2009) and is modified from a Deacon and Rawlins (2006) protocol (Deacon and Rawlins, 2006; Belichenko et al., 2009). […] In this part of the study, activity chamber and three cognitive tests, including T-maze spontaneous alternation, contextual fear conditioning (CFC), and novel object recognition were performed. In T-maze spontaneous alternation and contextual fear conditioning, both Ts65Dn and 2N male mice were divided into three treatment groups including normal saline (Vehicle), xamoterol, and betaxolol plus xamoterol groups. In the novel object recognition test, both Ts65Dn and 2N male mice were divided into two treatment groups, normal saline and xamoterol. The T-maze was performed exactly as previously described. […] On the first day (training day), animals were placed in the fear conditioning chamber, and after a 3-minute pre-shock period, they were exposed to 5 shocks (2 s, 0.5 mA,) with inter-trial intervals of 80 seconds and no tone. On the second day, the animals first received xamoterol, xamoterol plus betaxolol, or saline injection, and one hour later, they were placed in the same chamber for 5 minutes. Similar to the previous description of fear conditioning, freezing was defined as the complete lack of motion for a minimum of o.75 second. The Novel Object Recognition task is conducted in an open field arena (40 cm×40 cm). Mice were habituated in the testing room for 1 hour followed by 5 minutes habituation inside the arena without any objects. On 4th day animals were introduced 3 times to arena with 3 identical subjects for 10 minutes with 3 minutes inter trial intervals. On 5th day (24 hours after trainings) one of the objects replaced by a novel one and the time sniffing of each object were used for analysis. For testing the role of β1 adrenergic system, xamoterol and betaxolol (Tocris Bioscience, Ellisville, Mo.) were injected subcutaneously using 10 ml/kg normal saline as vehicle. Xamoterol, (3 mg/kg) was given one hour before testing and betaxolol (1 mg/kg) was given 30 minutes before testing.

Row | SMILES | effect on nesting behavior (Ts65Dn mice [1]) | effect on hippocampal-mediated contextual deficit in fear conditioning (Ts65Dn mice [2]) | effect on memory retrieval of contextual fear conditioning (C57Bl/6J mice) | effect of betaxolol on xamoterol's rescue of contextual fear conditioning (male Ts65Dn mice [3]) | effect of betaxolol on xamoterol's rescue of spontaneous alternation (male Ts65Dn mice [4])
1 | N[C@H](C(=O)O)[C@H](O)c1ccc(O)c(O)c1 [L-DOPS, L-threo-3,4-dihydroxyphenylserine] | restored | restored |  |  | 
2 | CC(C)NCC(O)COc1ccc(CC(N)=O)cc1 (stereo not drawn) [atenolol] |  |  | did not have such an effect |  | 
3 | CC(C)NCC(O)COc1ccc(CCOCC2CC2)cc1 (stereo not drawn) [betaxolol] |  |  | impaired | completely reversed; also recorded: prevents or blocks; also recorded: completely blocked; also recorded: betaxolol prevents this effect | completely reversed; also recorded: prevented or blocked; also recorded: blocked; also recorded: betaxolol prevents this effect

Source: US9072746B2, “Method for enhancing learning and memory impaired by neurodegenerative disorders and compounds and compositions for effecting the same” (The Board of Trustees of the Leland Stanford Junior …, priority 2010, dated 2015)
